Test system: P12-Ichikawa
Experiment: cell viability relative to DMSO control; higher = less cytotoxic
Conditions: 48 h
Method in brief: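 Viability values are per-plate percentages of DMSO wells, with background from cell-free wells. Library compounds in DMSO were pin-dosed, in an 11-point threefold series from 47 μM to 0.79 nM, onto NOMO1 or SEM (500 cells/well) or P12-Ichikawa (1000 cells/well) leukemia cells in 1536-well plates (5 μl). Those cells had been adapted for at least four passages in each medium, and CellTiter-Glo One luminescence was read after 48 h at 37°C.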

[1] = HPLM + 10% dialyzed FBS, 0.000781 µM
[2] = HPLM + 10% dialyzed FBS, 0.00234 µM
[3] = HPLM + 10% dialyzed FBS, 0.00702 µM
[4] = HPLM + 10% dialyzed FBS, 0.0211 µM
[5] = HPLM + 10% dialyzed FBS, 0.0632 µM
[6] = HPLM + 10% dialyzed FBS, 0.19 µM
[7] = HPLM + 10% dialyzed FBS, 0.569 µM
[8] = HPLM + 10% dialyzed FBS, 1.71 µM
[9] = HPLM + 10% dialyzed FBS, 5.12 µM
[10] = HPLM + 10% dialyzed FBS, 15.4 µM
[11] = HPLM + 10% dialyzed FBS, 46.1 µM
[12] = RPMI 5 mM glucose + 10% FBS, 0.000781 µM
[13] = RPMI 5 mM glucose + 10% FBS, 0.00234 µM
[14] = RPMI 5 mM glucose + 10% FBS, 0.00702 µM
[15] = RPMI 5 mM glucose + 10% FBS, 0.0211 µM
[16] = RPMI 5 mM glucose + 10% FBS, 0.0632 µM
[17] = RPMI 5 mM glucose + 10% FBS, 0.19 µM
[18] = RPMI 5 mM glucose + 10% FBS, 0.569 µM
[19] = RPMI 5 mM glucose + 10% FBS, 1.71 µM
[20] = RPMI 5 mM glucose + 10% FBS, 5.12 µM
[21] = RPMI 5 mM glucose + 10% FBS, 15.4 µM
[22] = RPMI 5 mM glucose + 10% FBS, 46.1 µM
[23] = RPMI 5 mM glucose + 10% dialyzed FBS, 0.000781 µM
[24] = RPMI 5 mM glucose + 10% dialyzed FBS, 0.00234 µM
[25] = RPMI 5 mM glucose + 10% dialyzed FBS, 0.00702 µM
[26] = RPMI 5 mM glucose + 10% dialyzed FBS, 0.0211 µM
[27] = RPMI 5 mM glucose + 10% dialyzed FBS, 0.0632 µM
[28] = RPMI 5 mM glucose + 10% dialyzed FBS, 0.19 µM
[29] = RPMI 5 mM glucose + 10% dialyzed FBS, 0.569 µM
[30] = RPMI 5 mM glucose + 10% dialyzed FBS, 1.71 µM
[31] = RPMI 5 mM glucose + 10% dialyzed FBS, 5.12 µM
[32] = RPMI 5 mM glucose + 10% dialyzed FBS, 15.4 µM
[33] = RPMI 5 mM glucose + 10% dialyzed FBS, 46.1 µM

Row | Structure (SMILES) | cell viability [1] | cell viability [2] | cell viability [3] | cell viability [4] | cell viability [5] | cell viability [6] | cell viability [7] | cell viability [8] | cell viability [9] | cell viability [10] | cell viability [11] | cell viability [12] | cell viability [13] | cell viability [14] | cell viability [15] | cell viability [16] | cell viability [17] | cell viability [18] | cell viability [19] | cell viability [20] | cell viability [21] | cell viability [22] | cell viability [23] | cell viability [24] | cell viability [25] | cell viability [26] | cell viability [27] | cell viability [28] | cell viability [29] | cell viability [30] | cell viability [31] | cell viability [32] | cell viability [33]
1 | COC1=CC=C2/C3=N/CCN3\C(=N/C2=C1OC)NC(=O)C4=CC=CN=C4 | 113% | 124% | 110% | 117% | 129% | 118% | 113% | 123% | 108% | 92.6% | 89.7% | 108% | 110% | 115% | 108% | 114% | 115% | 104% | 102% | 78.8% | 73.4% | 58% | 111% | 120% | 115% | 119% | 115% | 117% | 111% | 105% | 97.3% | 86.1% | 65.9%
2 | COc1cccc2c1CCCC2CCCN1CCN(C2CCCCC2)CC1 (configuration not stated) | 104% | 110% | 97.7% | 112% | 106% | 113% | 111% | 110% | 109% | 103% | 81.5% | 111% | 99.9% | 117% | 114% | 127% | 119% | 116% | 122% | 114% | 99.5% | 62.9% | 95.7% | 102% | 114% | 111% | 116% | 110% | 111% | 103% | 105% | 93.4% | 66.2%
3 | O=C(Nc1cccnn1)N1CCC(=Cc2cccc(Oc3ccc(C(F)(F)F)cn3)c2)CC1 | 92.9% | 94.1% | 91.4% | 11.9% | 106% | 103% | 101% | 101% | 102% | 94.4% | 87.4% | 85% | 86.8% | 96% | 12.6% | 101% | 103% | 99.7% | 103% | 95.7% | 80.3% | 76.8% | 92% | 93.9% | 101% | 47.1% | 110% | 100% | 102% | 105% | 101% | 90.3% | 81.5%
4 | COC1=CC=C2CN(C)CC[C@@]34\C=C/[C@H](O)C[C@@H]3OC1=C24 | – | – | – | – | – | – | – | – | – | – | – | – | – | – | – | – | – | – | – | – | – | – | 121% | 124% | 118% | 117% | 130% | 120% | 119% | 121% | 82.6% | 102% | 111%
5 | CO/N=C(\C(=O)N[C@@H]1C(=O)N2C(C(=O)OCOC(=O)C(C)(C)C)=C(/C=C\c3scnc3C)CS[C@H]12)c1csc(N)n1 | 91.7% | 102% | 105% | 104% | 108% | 110% | 106% | 106% | 110% | 89.8% | 72.4% | 85.6% | 91.6% | 101% | 99.6% | 101% | 103% | 96.4% | 103% | 103% | 75.8% | 60.1% | 92% | 89.6% | 102% | 91.8% | 104% | 106% | 99.2% | 98.7% | 102% | 80.9% | 57.2%
6 | COc1cccc2c1[C@]13CCN(CC4CC4)[C@H](C2)[C@]1(OC)CCC(=O)C3 | 99.7% | 120% | 66.7% | 124% | 125% | 122% | 121% | 121% | 127% | 116% | 119% | 94.6% | 113% | 56.9% | 110% | 136% | 129% | 127% | 121% | 123% | 117% | 123% | 92.9% | 120% | 68.7% | 120% | 123% | 127% | 133% | 118% | 122% | 127% | 116%
7 | CCN1CCN(C(=O)Cc2ccc(Nc3ncc(F)c(Nc4ccc(C(=O)Nc5ccccc5Cl)cc4)n3)cc2)CC1 | 107% | 105% | 108% | 108% | 116% | 118% | 116% | 107% | 60.1% | 48.1% | 26.2% | 105% | 108% | 112% | 111% | 115% | 122% | 111% | 114% | 73.2% | 50.9% | 41% | 119% | 111% | 112% | 125% | 131% | 121% | 107% | 107% | 79.2% | 52.6% | 45.6%
8 | N=C1N[C@H]2[C@H](CS[C@H]2CCCCC(=O)O)N1 | 108% | 116% | 110% | 118% | 124% | 119% | 130% | 114% | 123% | 119% | 113% | 123% | 130% | 121% | 134% | 135% | 131% | 125% | 126% | 135% | 126% | 139% | 114% | 124% | 111% | 129% | 117% | 126% | 121% | 117% | 126% | 126% | 116%

— the supplement of paper PMC11451515
